Test results as given in ChEMBL document CHEMBL1201862, “PubChem BioAssay data set” (2004).
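Interpolation was linear, between the two tested concentrations surrounding the appropriate level; five concentrations were tested over 48 hours in 96-well plates. Here, GI50 denotes the concentration required for 50% inhibition of growth.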 Calls of active or inactive are those of the source. No stated cut-off is given here; in the data, active = GI50 up to about 1.1 µM and inactive = higher.

Tests used:
Assay in all cases: NCI tumour cell line growth inhibition, 48 h
[1] = system: 786-0
[2] = system: A498
[3] = system: A549
[4] = system: ACHN
[5] = system: BT-549
[6] = system: DU-145
[7] = system: EKVX
[8] = system: HCT-116
[9] = system: HCT-15
[10] = system: HOP-62
[11] = system: HOP-92
[12] = system: HT-29
[13] = system: Hs-578T
[14] = system: IGROV-1
[15] = system: K562
[16] = system: KM12
[17] = system: LOX IMVI
[18] = system: M14
[19] = system: MCF7
[20] = system: MDA-MB-231
[21] = system: MDA-MB-435
[22] = system: MDA-N
[23] = system: MOLT-4
[24] = system: Malme-3M
[25] = system: NCI-H226
[26] = system: NCI-H460
[27] = system: NCI-H522
[28] = system: NCI/ADR-RES
[29] = system: OVCAR-3
[30] = system: OVCAR-4
[31] = system: OVCAR-5
[32] = system: OVCAR-8
[33] = system: PC-3
[34] = system: RPMI-8226
[35] = system: SF-268
[36] = system: SF-295
[37] = system: SF-539
[38] = system: SK-MEL-28
[39] = system: SK-MEL-2
[40] = system: SK-OV-3
[41] = system: SN12C
[42] = system: SNB-19
[43] = system: SNB-75
[44] = system: SW-620
[45] = system: TK-10
[46] = system: U-251
[47] = system: UACC-257
[48] = system: UACC-62
[49] = system: UO-31
[50] = system: CCRF-CEM
[51] = system: COLO 205
[52] = system: HL-60
[53] = system: NCI-H23
[54] = system: RXF 393
[55] = system: SR

O=C1Nc2ccccc2/C1=N/Nc1ncccc1[N+](=O)[O-] was tested, and the GI50 [1] was 4.84 µM (inactive), the GI50 [2] was 71.3 µM (inactive) and the GI50 [3] was 18 µM (inactive). For the same molecule, the GI50 [4] was 4.69 µM (inactive), the GI50 [5] was 11.5 µM (inactive) and the GI50 [6] was 14.6 µM (inactive). The GI50 [7] was 5.08 µM (inactive), the GI50 [8] was 4.92 µM (inactive) and the GI50 [9] was 4.72 µM. The GI50 [10] was 12.9 µM (inactive), the GI50 [11] was 62.2 µM (inactive) and the GI50 [12] was 6.12 µM (inactive). For the same molecule, the GI50 [13] was 31.6 µM (inactive), the GI50 [14] was 2.09 µM (inactive) and the GI50 [15] was 3.95 µM (inactive). For the same molecule, the GI50 [16] was 3.42 µM (inactive), the GI50 [17] was 7.55 µM (inactive) and the GI50 [18] was 16.3 µM (inactive). For the same molecule, the GI50 [19] was 3.19 µM (inactive), the GI50 [20] was 86.9 µM (inactive) and the GI50 [21] was 16.8 µM (inactive). The GI50 [22] was 27.1 µM (inactive), the GI50 [23] was 48.1 µM (inactive) and the GI50 [24] was 17.3 µM (inactive). For the same molecule, the GI50 [25] was 13.6 µM (inactive), the GI50 [26] was 16.7 µM (inactive) and the GI50 [27] was 9.71 µM (inactive). For the same molecule, the GI50 [28] was 9.25 µM (inactive), the GI50 [29] was 6.25 µM (inactive) and the GI50 [30] was 19.2 µM (inactive). The GI50 [31] was 12.6 µM (inactive), the GI50 [32] was 17.6 µM (inactive) and the GI50 [33] was 12.4 µM (inactive). The GI50 [34] was 3.15 µM (inactive), the GI50 [35] was 11.9 µM (inactive) and the GI50 [36] was 17.2 µM (inactive). The GI50 [37] was 2.37 µM (inactive), the GI50 [38] was 22.6 µM (inactive) and the GI50 [39] was 20.9 µM (inactive). The GI50 [40] was 12.1 µM (inactive), the GI50 [41] was 17.3 µM (inactive) and the GI50 [42] was 19.9 µM (inactive). For the same molecule, the GI50 [43] was 1.39 µM (inactive), the GI50 [44] was 8.13 µM (inactive) and the GI50 [45] was 14.1 µM (inactive). The GI50 [46] was 7.18 µM (inactive), the GI50 [47] was 23 µM (inactive) and the GI50 [48] was 10.6 µM (inactive). For the same molecule, the GI50 [49] was 11.6 µM (inactive).
C1=N\CCOCC/N=C/c2ccccc2OCc2cccc(n2)COc2ccccc2/1 was tested, and the GI50 [1] was 10 µM (inactive), the GI50 [2] was > 25 µM (inactive) and the GI50 [3] was > 25 µM (inactive). The GI50 [4] was 9.23 µM (inactive), the GI50 [5] was 6.76 µM (inactive) and the GI50 [50] was 4.76 µM (inactive). For the same molecule, the GI50 [51] was 13 µM (inactive), the GI50 [6] was 6.61 µM (inactive) and the GI50 [7] was 16.6 µM (inactive). For the same molecule, the GI50 [8] was 4.99 µM (inactive), the GI50 [9] was 6.46 µM and the GI50 [52] was 5.07 µM (inactive). The GI50 [10] was 16.5 µM (inactive), the GI50 [11] was 10.4 µM (inactive) and the GI50 [12] was 5.22 µM (inactive). For the same molecule, the GI50 [13] was 6.82 µM (inactive), the GI50 [14] was 6.3 µM (inactive) and the GI50 [15] was 2.38 µM (inactive). The GI50 [16] was 7.85 µM (inactive), the GI50 [18] was 8.87 µM (inactive) and the GI50 [19] was 4.32 µM (inactive). For the same molecule, the GI50 [20] was 8.93 µM (inactive), the GI50 [21] was 0.778 µM (active) and the GI50 [22] was 0.942 µM (active). The GI50 [23] was 4.91 µM (inactive), the GI50 [24] was 4.53 µM (inactive) and the GI50 [53] was 12.5 µM (inactive). The GI50 [26] was > 25 µM (inactive), the GI50 [27] was 20.3 µM (inactive) and the GI50 [28] was 3.39 µM (inactive). The GI50 [29] was 3.51 µM (inactive), the GI50 [30] was 6.03 µM (inactive) and the GI50 [31] was 5.26 µM (inactive). The GI50 [32] was 6.38 µM (inactive), the GI50 [33] was 8.93 µM (inactive) and the GI50 [34] was 4.88 µM (inactive). For the same molecule, the GI50 [54] was 9.59 µM (inactive), the GI50 [35] was 9.4 µM (inactive) and the GI50 [36] was 4.02 µM (inactive). For the same molecule, the GI50 [37] was 3.2 µM (inactive), the GI50 [38] was 8.13 µM (inactive) and the GI50 [39] was 8.63 µM (inactive). For the same molecule, the GI50 [40] was 11.2 µM (inactive), the GI50 [41] was 5.96 µM (inactive) and the GI50 [42] was 9.51 µM (inactive). For the same molecule, the GI50 [43] was 2.83 µM (inactive), the GI50 [55] was 0.977 µM (active) and the GI50 [44] was 4.79 µM (inactive). The GI50 [45] was 6.27 µM (inactive), the GI50 [46] was 6.04 µM (inactive) and the GI50 [47] was 8.11 µM (inactive). The GI50 [48] was 2.27 µM (inactive) and the GI50 [49] was 7.98 µM (inactive).
